# From patent US9181266B2, “2-piperidin-1-yl-acetamide compounds for use as tankyrase inhibitors” (NOVARTIS AG, priority 2011, dated 2015)
# Experiments:
# [1] = molecular target: Human PARP1 (Homo sapiens (Human), UniProt P09874); test: PARP1 autoparsylation assay (LC/MS detection of nicotinamide); assay type: biochemical; settings: 20 nM enzyme, 250 μM β-NAD+, 60 min
# Method: (§1) The autoparsylation activity of the TNKS 1/2 or PARP1/2 enzymes was measured by the liquid chromatography-mass spectrometry (LC/MS) detection of nicotinamide as readout. Compound activity in inhibiting the TNKS and PARP autoparsylation was evaluated by IC50 measurements.
# [2] = molecular target: PARP2 (Mus musculus (Mouse), UniProt O88554); test: PARP2 autoparsylation assay (LC/MS detection of nicotinamide); assay type: biochemical; settings: 20 nM enzyme, 250 μM β-NAD+, 60 min
# PARP2, sequence (O88554 whole entry): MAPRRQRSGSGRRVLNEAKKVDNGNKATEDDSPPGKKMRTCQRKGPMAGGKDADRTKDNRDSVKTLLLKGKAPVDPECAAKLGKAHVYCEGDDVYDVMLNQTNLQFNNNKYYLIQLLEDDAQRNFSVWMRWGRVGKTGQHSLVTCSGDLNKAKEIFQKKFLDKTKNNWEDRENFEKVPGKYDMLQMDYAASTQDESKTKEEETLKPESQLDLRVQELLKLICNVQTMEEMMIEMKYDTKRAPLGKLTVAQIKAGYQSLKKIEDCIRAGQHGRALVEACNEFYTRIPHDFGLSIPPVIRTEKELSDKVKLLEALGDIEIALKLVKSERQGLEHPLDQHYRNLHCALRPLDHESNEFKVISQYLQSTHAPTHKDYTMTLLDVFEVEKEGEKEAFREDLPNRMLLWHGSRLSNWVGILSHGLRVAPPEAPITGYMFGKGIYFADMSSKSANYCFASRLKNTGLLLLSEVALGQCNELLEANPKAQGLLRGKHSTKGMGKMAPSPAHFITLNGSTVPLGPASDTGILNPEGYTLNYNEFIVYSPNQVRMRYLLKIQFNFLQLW
# Method: as §1
# [3] = test system: Wnt ligand-induced signaling in HEK293 cells; test: Wnt-responsive Super-TOpFlash (STF) luciferase reporter gene assay; assay type: cell-based; settings: Homo sapiens, Wnt3A condition medium
# In short: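 HEK293 cells (8000/well, 5% FBS medium) treated with 20% mouse L-cell Wnt3A conditioned medium plus compounds in 10-point serial dilution; luciferase read next day. Inhibition calculated relative to Wnt3A-induced signal without compound and background without Wnt3A CM or compound.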
# [4] = test system: Axin2 protein in SW480 cells; test: Cellular ELISA assay of Axin2 protein stabilization; assay type: cell-based; settings: Homo sapiens, 24 hrs, read-out: Axin AC50
# In short: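 SW480 colorectal cells seeded overnight, treated with compound, then lysed. Axin2 in lysates measured by sandwich ELISA: anti-Axin2 capture antibody coated at 1 μg/ml (pH 9.2), lysate 2 h at room temperature, biotinylated anti-Axin2 detection 2 h, then streptavidin-HRP 30 min.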
# [5] = test system: Non-small lung cancer ABC-1 cells; test: Cellular proliferation assay (CellTiter-Glo); assay type: cell-based; settings: Homo sapiens, 72 h; ABC-1 cells, 3 days of compound treatment; read-out: ABC-1 IC50
# Method: Cellular Proliferation Assay to Determine Compound Inhibition of Cancer Cell Growth
# Viable cells were measured after 3 days of compound treatment using the CellTiter-Glo assay (Promega, G7570). Assay was performed following the manufacture protocol.
# [6] = molecular target: human tankyrase 1 PARP catalytic domain, TNKS1P (Homo sapiens (Human), UniProt O95271); test: TNKS1 autoparsylation assay (LC/MS detection of nicotinamide); settings: read-out: TNKS1 AP IC50, 20 nM enzyme, 250 μM β-NAD+, 60 min
# human tankyrase 1 PARP catalytic domain, TNKS1P, sequence (O95271 1112-1317): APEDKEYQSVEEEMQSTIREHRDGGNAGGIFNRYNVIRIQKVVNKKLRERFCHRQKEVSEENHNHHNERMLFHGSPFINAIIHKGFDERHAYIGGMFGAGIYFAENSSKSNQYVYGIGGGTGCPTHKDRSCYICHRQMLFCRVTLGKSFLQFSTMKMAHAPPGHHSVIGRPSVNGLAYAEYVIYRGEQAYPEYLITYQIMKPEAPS
# [7] = molecular target: tankyrase 2 protein PARP domain, TNKS2P (Homo sapiens (Human), UniProt Q9H2K2); test: TNKS2 autoparsylation assay (LC/MS detection of nicotinamide); settings: read-out: TNKS2 AP IC50, 20 nM enzyme, 250 μM β-NAD+, 60 min
# tankyrase 2 protein PARP domain, TNKS2P, sequence (Q9H2K2 959-1164): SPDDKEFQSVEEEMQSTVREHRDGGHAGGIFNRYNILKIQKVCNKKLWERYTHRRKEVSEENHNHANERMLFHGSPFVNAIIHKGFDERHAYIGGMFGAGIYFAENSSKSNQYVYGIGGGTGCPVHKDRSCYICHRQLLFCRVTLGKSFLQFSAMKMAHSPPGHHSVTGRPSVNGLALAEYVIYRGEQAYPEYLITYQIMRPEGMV
# Human PARP1, sequence (P09874 whole entry): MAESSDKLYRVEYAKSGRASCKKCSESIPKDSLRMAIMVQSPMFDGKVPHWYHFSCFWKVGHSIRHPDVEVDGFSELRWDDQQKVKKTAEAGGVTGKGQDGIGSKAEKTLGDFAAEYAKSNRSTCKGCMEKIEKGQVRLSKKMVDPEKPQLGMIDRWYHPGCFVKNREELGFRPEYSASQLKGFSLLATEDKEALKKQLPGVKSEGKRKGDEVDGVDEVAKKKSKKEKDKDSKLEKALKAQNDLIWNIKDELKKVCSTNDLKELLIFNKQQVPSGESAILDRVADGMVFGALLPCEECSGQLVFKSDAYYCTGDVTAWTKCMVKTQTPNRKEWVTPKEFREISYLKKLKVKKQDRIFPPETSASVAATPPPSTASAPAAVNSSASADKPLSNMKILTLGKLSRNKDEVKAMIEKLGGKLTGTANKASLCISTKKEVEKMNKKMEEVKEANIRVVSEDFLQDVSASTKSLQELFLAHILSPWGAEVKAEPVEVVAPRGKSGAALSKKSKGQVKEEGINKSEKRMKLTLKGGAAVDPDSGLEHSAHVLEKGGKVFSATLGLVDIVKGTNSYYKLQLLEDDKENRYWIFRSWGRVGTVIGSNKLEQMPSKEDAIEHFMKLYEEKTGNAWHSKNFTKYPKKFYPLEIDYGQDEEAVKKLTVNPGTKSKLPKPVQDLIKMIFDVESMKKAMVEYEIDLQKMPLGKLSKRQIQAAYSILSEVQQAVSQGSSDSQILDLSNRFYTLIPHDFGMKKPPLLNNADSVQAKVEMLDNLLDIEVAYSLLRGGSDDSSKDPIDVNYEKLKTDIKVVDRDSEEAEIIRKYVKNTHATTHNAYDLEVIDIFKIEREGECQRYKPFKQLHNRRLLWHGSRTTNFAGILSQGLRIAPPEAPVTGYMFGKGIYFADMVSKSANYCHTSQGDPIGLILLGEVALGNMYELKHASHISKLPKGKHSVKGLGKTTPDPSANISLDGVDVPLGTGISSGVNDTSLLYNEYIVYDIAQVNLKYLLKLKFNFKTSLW
Structure (SMILES),IC50 [1] [nM],IC50 [2] [nM],IC50 [3] [nM],AC50 [4] [nM],IC50 [5] [nM],IC50 [6] [nM],IC50 [7] [nM]
"COc1ccc(C(=O)C2CCN(CC(=O)NCc3nc4c(c(=O)[nH]3)CCC4)CC2)cc1 [Example 11, 2-(4-(4-Methoxybenzoyl)piperidin-1-yl)-N-((4-oxo-4,5,6,7-tetrahydro-3H-cyclopenta[d]pyrimidin-2-yl)methyl)acetamide]",17900 ± 1800,4620 ± 20,3 ± 1,15 ± 4,18,28.5 ± 3.5,110 ± 140
"COc1ccc(C(=O)C2CCN(CC(=O)NCc3nc(C)c(C)c(=O)[nH]3)CC2)cc1 [Example 12, N-((4,5-Dimethyl-6-oxo-1,6-dihydropyrimidin-2-yl)methyl)-2-(4-(4-methoxybenzoyl)piperidin-1-yl)acetamide]",> 19000,> 19000,7 ± 4,32 ± 4,53,40 ± 2,20 ± 3
"CC(C)(C)CN(Cc1nc2c(c(=O)[nH]1)COCC2)C(=O)CN1CCC(C(=O)c2ccc(F)cc2)CC1 [Example 14, 2-(4-(4-Fluorobenzoyl)piperidin-1-yl)-N-neopentyl-N-((4-oxo-4,5,7,8-tetrahydro-3H-pyrano[4,3-d]pyrimidin-2-yl)methyl)acetamide]",> 19000,> 19000,49 ± 23,501 ± 29,270,60 ± 7,20 ± 1
"O=C(c1ccc(F)cc1)C1CCN(CC(=O)N(Cc2ccc(F)cc2)Cc2nc3c(c(=O)[nH]2)COCC3)CC1 [Example 15, 2-(4-(4-Fluorobenzoyl)piperidin-1-yl)-N-(4-fluorobenzyl)-N-((4-oxo-4,5,7,8-tetrahydro-3H-pyrano[4,3-d]pyrimidin-2-yl)methyl)acetamide]",> 19000,> 19000,101 ± 74,804 ± 91,540,138 ± 1,32 ± 1
"COc1ccc(CN(Cc2nc3c(c(=O)[nH]2)COCC3)C(=O)CN2CCC(C(=O)c3ccc(F)cc3)CC2)cc1 [Example 16, 2-(4-(4-Fluorobenzoyl)piperidin-1-yl)-N-(4-methoxybenzyl)-N-((4-oxo-4,5,7,8-tetrahydro-3H-pyrano[4,3-d]pyrimidin-2-yl)methyl)acetamide]",> 19000,> 19000,49 ± 43,587 ± 87,340,66 ± 4,15 ± 2
"O=C(c1ccc(F)cc1)C1CCN(CC(=O)N(Cc2nc3c(c(=O)[nH]2)COCC3)Cc2nc3ccccc3s2)CC1 [Example 17, N-(Benzo[d]thiazol-2-ylmethyl)-2-(4-(4-fluorobenzoyl)piperidin-1-yl)-N-((4-oxo-4,5,7,8-tetrahydro-3H-pyrano[4,3-d]pyrimidin-2-yl)methyl)acetamide]",> 19000,> 19000,49 ± 37,125 ± 18,420,73 ± 3,18 ± 1
"COc1cccc(CN(Cc2nc3c(c(=O)[nH]2)COCC3)C(=O)CN2CCC(C(=O)c3ccc(F)cc3)CC2)c1 [Example 18, 2-(4-(4-Fluorobenzoyl)piperidin-1-yl)-N-(3-methoxybenzyl)-N-((4-oxo-4,5,7,8-tetrahydro-3H-pyrano[4,3-d]pyrimidin-2-yl)methyl)acetamide]",> 19000,> 19000,72 ± 62,493 ± 87,535 ± 7,94 ± 1,23
"O=C(c1ccc(F)cc1)C1CCN(CC(=O)N(Cc2nc3c(c(=O)[nH]2)COCC3)C[C@H]2CCCO2)CC1 [Example 29, (R)-2-(4-(4-Fluorobenzoyl)piperidin-1-yl)-N-((4-oxo-4,5,7,8-tetrahydro-3H-pyrano[4,3-d]pyrimidin-2-yl)methyl)-N-((tetrahydrofuran-2-yl)methyl)acetamide]",> 19000,> 19000,79 ± 80,990 ± 220,1430,148 ± 10,38 ± 1
"CC[C@H](C)N(Cc1nc2c(c(=O)[nH]1)COCC2)C(=O)CN1CCC(C(=O)c2ccc(F)cc2)CC1 [Example 31, (S)—N-sec-Butyl-2-(4-(4-fluorobenzoyl)piperidin-1-yl)-N-((4-oxo-4,5,7,8-tetrahydro-3H-pyrano[4,3-d]pyrimidin-2-yl)methyl)acetamide]",> 19000,> 19000,37 ± 9,1100 ± 180,630 ± 400,38 ± 3,13 ± 1
"CC[C@@H](C)N(Cc1nc2c(c(=O)[nH]1)COCC2)C(=O)CN1CCC(C(=O)c2ccc(F)cc2)CC1 [Example 32, (R)—N-sec-Butyl-2-(4-(4-fluorobenzoyl)piperidin-1-yl)-N-((4-oxo-4,5,7,8-tetrahydro-3H-pyrano[4,3-d]pyrimidin-2-yl)methyl)acetamide]",> 19000,> 19000,49 ± 14,910 ± 150,370,43 ± 2,13 ± 1
"CC(C)N(Cc1nc2c(c(=O)[nH]1)COCC2)C(=O)CN1CCC(C(=O)c2ccc(F)cc2)CC1 [Example 33, 2-(4-(4-Fluorobenzoyl)piperidin-1-yl)-N-isopropyl-N-((4-oxo-4,5,7,8-tetrahydro-3H-pyrano[4,3-d]pyrimidin-2-yl)methyl)acetamide]",> 19000,> 19000,59 ± 20,2800 ± 1400,690 ± 100,95 ± 1,20 ± 1
"C[C@H](c1ccc(F)cc1)N(Cc1nc2c(c(=O)[nH]1)COCC2)C(=O)CN1CCC(C(=O)c2ccc(F)cc2)CC1 [Example 36, (R)-2-(4-(4-Fluorobenzoyl)piperidin-1-yl)-N-(1-(4-fluorophenyl)ethyl)-N-((4-oxo-4,5,7,8-tetrahydro-3H-pyrano[4,3-d]pyrimidin-2-yl)methyl)acetamide]",> 19000,> 19000,127 ± 47,1850 ± 310,2630,104 ± 28,25 ± 7
"CC(c1ccc(F)cc1F)N(Cc1nc2c(c(=O)[nH]1)COCC2)C(=O)CN1CCC(C(=O)c2ccc(F)cc2)CC1 (centres unmarked) [Example 37, N-(1-(2,4-Difluorophenyl)ethyl)-2-(4-(4-fluorobenzoyl)piperidin-1-yl)-N-((4-oxo-4,5,7,8-tetrahydro-3H-pyrano[4,3-d]pyrimidin-2-yl)methyl)acetamide]",> 19000,> 19000,96 ± 19,960 ± 520,510,155 ± 34,39.5 ± 7.8
"O=C(c1ccc(F)cc1)C1CCN(CC(=O)N(Cc2nc3c(c(=O)[nH]2)COCC3)Cc2ccccc2F)CC1 [Example 39, 2-(4-(4-Fluorobenzoyl)piperidin-1-yl)-N-(2-fluorobenzyl)-N-((4-oxo-4,5,7,8-tetrahydro-3H-pyrano[4,3-d]pyrimidin-2-yl)methyl)acetamide]",> 19000,> 19000,17 ± 3,112 ± 18,230 ± 99,43 ± 1,9 ± 1
"O=C(c1ccc(F)cc1)C1CCN(CC(=O)N(Cc2nc3c(c(=O)[nH]2)COCC3)Cc2ccc(F)cc2F)CC1 [Example 40, N-(2,4-Difluorobenzyl)-2-(4-(4-fluorobenzoyl)piperidin-1-yl)-N-((4-oxo-4,5,7,8-tetrahydro-3H-pyrano[4,3-d]pyrimidin-2-yl)methyl)acetamide]",> 19000,> 19000,28 ± 4,431 ± 40,520 ± 14,77 ± 5,14 ± 1
"C[C@H](C1CC1)N(Cc1nc2c(c(=O)[nH]1)COCC2)C(=O)CN1CCC(C(=O)c2ccc(F)cc2)CC1 [Example 41, (R)—N-(1-Cyclopropylethyl)-2-(4-(4-fluorobenzoyl)piperidin-1-yl)-N-((4-oxo-4,5,7,8-tetrahydro-3H-pyrano[4,3-d]pyrimidin-2-yl)methyl)acetamide]",> 19000,> 19000,32 ± 1.4,720 ± 150,476,16 ± 1,32 ± 1
"C[C@@H](C1CC1)N(Cc1nc2c(c(=O)[nH]1)COCC2)C(=O)CN1CCC(C(=O)c2ccc(F)cc2)CC1 [Example 42, (S)—N-(1-Cyclopropylethyl)-2-(4-(4-fluorobenzoyl)piperidin-1-yl)-N-((4-oxo-4,5,7,8-tetrahydro-3H-pyrano[4,3-d]pyrimidin-2-yl)methyl)acetamide]",> 19000,> 19000,45.7 ± 4.9,589 ± 60,290,42 ± 3,10 ± 1
